Values after ≈ are worked out from the molar mass of the structure shown.
Experiments:
[1] = system: M. tuberculosis H37Rv expressing the green fluorescent protein (H37Rv-GFP); experiment: microbe, parasite or virus in culture; assay type: cell-based; settings: for MIC50: Mycobacterium tuberculosis, H37RV, 120 h, read-out: QUM (MIC50)
[2] = system: Raw 264.7 cells infected with H37Rv-GFP; experiment: microbe, parasite or virus in culture; assay type: cell-based, M. tuberculosis; settings: for MIC50: Mycobacterium tuberculosis, H37RV, 120 h, read-out: QIM (MIC50)

Structure (SMILES) | MIC50 [1] [µM] | MIC50 [2] [µM] | QUM (MIC50, uM) [1] | QIM (MIC50, uM) [2]
O=C(Nc1ccc(-c2ccc(F)cn2)cc1)c1cc2sc(N3CCNCC3)nc2s1 [Compound 315] | 1 to 20 (≈ 0.44 to 8.79 µg/mL) | < 1 |  | 
CN(C)C(=O)C1CCN(c2nc3sc(C(=O)Nc4ccc5oc(Cc6ccc(F)cc6)nc5c4)cc3s2)CC1 [Compound 219] | 1 to 20 (≈ 0.564 to 11.3 µg/mL) | < 1 |  | 
Cc1nc2cc(NC(=O)c3sc4nc(N5CCOCC5)sc4c3OCc3ccccc3)ccc2o1 [Compound 185] | > 20 | > 20 |  | 
O=C(Nc1ccc(N2CCC(Oc3ccc(F)cc3)CC2)cc1)c1cc2sc(N3CCOCC3)nc2s1 [Compound 220] | > 20 | < 1 |  | 
CN(CC(O)C(F)(F)F)c1nc2sc(C(=O)Nc3ccc(-c4ccc(F)nc4)cc3)cc2s1 (stereo not drawn) [Compound 339] | < 1 | < 1 |  | 
Cc1nc2cc(NC(=O)c3cc4sc(N(C)CCN5CCOCC5)nc4s3)ccc2o1 [Compound 225] | 1 to 20 (≈ 0.458 to 9.15 µg/mL) | < 1 |  | 
COc1ccc(CN(CCO)c2nc3sc(C(=O)Nc4ccc5oc(C)nc5c4)cc3s2)cc1 [Compound 248] | 1 to 20 (≈ 0.495 to 9.89 µg/mL) | < 1 |  | 
CN(C)C(=O)CC1CCN(c2nc3sc(C(=O)Nc4ccc(-c5ccc(F)nc5)cc4)cc3s2)C1 (stereo not drawn) [Compound 350] | < 1 | < 1 |  | 
Cc1ccc(-c2ccc(NC(=O)c3cc4sc(N5CCC(C(=O)N(C)C)CC5)nc4s3)cc2)cn1.Cl [Compound 208] |  |  | +++ (+++ indicates <1 uM) | +++ (+++ indicates <1 uM)
CC(C)(C)CC(=O)NC1CCN(c2nc3sc(C(=O)Nc4ccc(-c5ccc(F)cn5)cc4)cc3s2)CC1 [Compound 349] | > 20 | < 1 |  | 
C#CCOc1ccc(-c2ccc(NC(=O)c3cc4sc(NCCN5CCOCC5)nc4s3)cc2)cc1 [Compound 359] | 1 to 20 (≈ 0.519 to 10.4 µg/mL) | < 1 |  | 
Cc1nc2cc(NC(=O)c3cc4sc(N5CC(C(=O)N(C)C)C5)nc4s3)ccc2o1 [Compound 244] | > 20 | < 1 |  | 
Cc1nc2cc(NC(=O)c3cc4ccc(N5CCOCC5)nc4s3)ccc2o1 [Compound 176] | > 20 | > 20 |  | 
Cc1ccc(-c2ccc(NC(=O)c3cc4sc(N5CCNCC5)nc4s3)cc2)nc1 [Compound 346] | 1 to 20 (≈ 0.436 to 8.71 µg/mL) | < 1 |  | 
Cc1nc2cc(NC(=O)c3cc4sc(NCCOc5ccc(Cl)cc5)nc4s3)ccc2o1 [Compound 290] | > 20 | < 1 |  | 
CN(CCCO)c1nc2sc(C(=O)Nc3ccc(-c4ccc(F)nc4)cc3)cc2s1 [Compound 291] | < 1 | < 1 |  | 
Cc1nc2cc(NC(=O)c3cc4sc(NC5CCOCC5)nc4s3)ccc2o1 [Compound 299] | < 1 | < 1 |  | 
Cc1nc2cc(NC(=O)c3cc4sc(N(CCO)C5CCCCC5)nc4s3)ccc2o1 [Compound 227] | 1 to 20 (≈ 0.457 to 9.13 µg/mL) | > 20 |  | 
Cc1nc2cc(NC(=O)c3cc4sc(N5CCC(N)CC5)nc4s3)ccc2o1 [Compound 234] | 1 to 20 (≈ 0.414 to 8.27 µg/mL) | < 1 |  | 
Cc1nc2cc(NC(=O)c3cc4sc(N(C)CC(O)C(F)(F)F)nc4s3)ccc2o1 (stereo not drawn) [Compound 261] | < 1 | < 1 |  | 
O=C(Nc1ccc(-c2ccc(F)cn2)cc1)c1cc2sc(NCC(O)C(F)(F)F)nc2s1 (stereo not drawn) [Compound 340] | 1 to 20 (≈ 0.482 to 9.65 µg/mL) | < 1 |  | 
COc1ccc(CNc2nc3sc(C(=O)Nc4ccc5oc(C)nc5c4)cc3s2)cc1 [Compound 239] | 1 to 20 (≈ 0.451 to 9.01 µg/mL) | < 1 |  | 
O=C(Nc1ccc(F)cn1)c1cc2sc(NCCN3CCOCC3)nc2s1 [Compound 335] | 1 to 20 (≈ 0.407 to 8.15 µg/mL) | 1 to 20 (≈ 0.407 to 8.15 µg/mL) |  | 
O=C(Nc1ccc(F)cc1)c1cc2sc(NC3CCN(Cc4ccc(F)cc4)CC3)nc2s1 [Compound 314] | < 1 | < 1 |  | 

Structure (SMILES) | MIC50 [1] [µM] | MIC50 [2] [µM] | QUM (MIC50, uM) [1] | QIM (MIC50, uM) [2]
Cc1ccc(-c2ccc(NC(=O)c3cc4sc(N5CCC(C(=O)N(C)C)CC5)nc4s3)cc2)cn1 [Compound 204] | < 1 | < 1 |  | 
COc1ccc(-c2ccc(NC(=O)c3cc4sc(N5CCC(C(=O)N(C)C)CC5)nc4s3)cc2)cn1 [Compound 213] | < 1 | < 1 |  | 
COCCN(c1nc2sc(C(=O)Nc3ccc4oc(C)nc4c3)cc2s1)C1CC1 [Compound 270] | > 20 | > 20 |  | 
CN1CCN(CCNc2nc3sc(C(=O)Nc4ccc(-c5ccc(F)cn5)cc4)cc3s2)CC1 [Compound 325] | 1 to 20 (≈ 0.497 to 9.93 µg/mL) | < 1 |  | 
O=C(Nc1ccc(F)cc1)c1cc2sc(NCCCN3CCOCC3)nc2s1 [Compound 327] | 1 to 20 (≈ 0.421 to 8.41 µg/mL) | 1 to 20 (≈ 0.421 to 8.41 µg/mL) |  | 
O=C(Nc1ccc(-c2ccc(F)nc2)cc1)c1cc2sc(N3CCNCC3)nc2s1 [Compound 289] | 1 to 20 (≈ 0.44 to 8.79 µg/mL) | < 1 |  | 
Cc1nc2cc(NC(=O)c3cc4sc(NCCO)nc4s3)ccc2o1 [Compound 267] | 1 to 20 (≈ 0.374 to 7.49 µg/mL) | 1 to 20 (≈ 0.374 to 7.49 µg/mL) |  | 
O=C(Nc1ccc(N2CCC(Oc3ccc(Cl)cc3)CC2)cc1)c1cc2sc(N3CCOCC3)nc2s1 [Compound 193] | > 20 | < 1 |  | 
Cc1ccc(-c2ccc(NC(=O)c3cc4sc(NCCN5CCOCC5)nc4s3)cc2)nc1 [Compound 260] | 1 to 20 (≈ 0.48 to 9.59 µg/mL) | < 1 |  | 
O=C(Nc1ccc(-c2ccc(F)nc2)cc1)c1cc2sc(NCCN3CCCCC3)nc2s1 [Compound 329] | 1 to 20 (≈ 0.482 to 9.63 µg/mL) | < 1 |  | 
COc1ccc(NC(=O)c2cc3nc(N4CCOCC4)sc3s2)cc1 [Compound 27] | > 20 | 1 to 20 (≈ 0.375 to 7.51 µg/mL) |  | 
Cc1ccc(-c2ccc(NC(=O)c3cc4sc(N(C)C)nc4s3)cc2)cn1 [Compound 240] | > 20 | < 1 |  | 
Cc1nc2cc(NC(=O)c3cc4sc(N(C)CCCO)nc4s3)ccc2o1 [Compound 238] | 1 to 20 (≈ 0.403 to 8.05 µg/mL) | < 1 |  | 
CN(C)C(=O)CC1CCN(c2nc3sc(C(=O)Nc4ccc(-c5ccc(F)nc5)cc4)cc3s2)CC1 [Compound 351] | < 1 | < 1 |  | 
O=C(Nc1ccc(-c2ccc(F)nc2)cc1)c1cc2sc(N3CCN(CCO)CC3)nc2s1 [Compound 337] | < 1 | < 1 |  | 
CCCC(=O)Nc1nc2sc(C(=O)Nc3ccc4oc(C)nc4c3)cc2s1 [Compound 243] | > 20 | < 1 |  | 
COc1ccc(NC(=O)c2cc3sc(N4CCC(CO)CC4)nc3s2)cc1 [Compound 120] | < 1 | < 1 |  | 
Cc1nc2cc(NC(=O)c3cc4sc(N5CCN(C(=O)N(C)C)CC5)nc4s3)ccc2o1 [Compound 237] | < 1 | < 1 |  | 
COc1ccc(-c2ccc(NC(=O)c3cc4sc(NCCN5CCOCC5)nc4s3)cc2)cn1 [Compound 292] | 1 to 20 (≈ 0.496 to 9.91 µg/mL) | < 1 |  | 
O=C(Nc1ccc(F)cc1)c1cc2sc(N3CCC(C(O)c4ccc(Cl)cc4)CC3)nc2s1 (stereo not drawn) [Compound 247] | 1 to 20 (≈ 0.502 to 10 µg/mL) | < 1 |  | 
Cc1nc2cc(NC(=O)c3cc4sc(N5CCN(CCO)CC5)nc4s3)ccc2o1 [Compound 336] | 1 to 20 (≈ 0.444 to 8.87 µg/mL) | < 1 |  | 
Cc1nc2cc(NC(=O)c3cc4sc(N5CCC(NC(=O)OC(C)(C)C)CC5)nc4s3)ccc2o1 [Compound 233] | 1 to 20 (≈ 0.514 to 10.3 µg/mL) | < 1 |  | 
Cn1ccc(-c2ccc(NC(=O)c3cc4sc(NCCN5CCOCC5)nc4s3)cc2)n1 [Compound 319] | 1 to 20 (≈ 0.469 to 9.37 µg/mL) | < 1 |  | 
O=C(Nc1ccc(N2CCC(C(=O)c3ccc(Cl)cc3)CC2)cc1)c1cc2sc(N3CCOCC3)nc2s1 [Compound 226] | > 20 | < 1 |  | 
